The source of these data is PMC8400257, “2-Phenoxy-3-Trichloromethylquinoxalines Are Antiplasmodial Derivatives with Activity against the Apicoplast of Plasmodium falciparum” (Pharmaceuticals, 2021).

Where two headings read alike, the source gives them in different places.

As usually defined, the EC50 is the midpoint of the concentration-response curve. Usually melting point stands for the temperature of the solid-liquid transition.

For series [1], the system named is P. falciparum (NF135 strain) hepatic exoerythrocytic forms. As to the kind of experiment: Liver stage development in infected primary human hepatocytes. The series is classed as cell-based, Plasmodium falciparum. The settings on record: 3i 0.9-30 µM, ATQ 25 nM; 6 or 12 days post-infection. As to the method: The effect of (3i) on the hepatic stage of P. falciparum was next studied in order to know if (3i) was active against another stage of P. falciparum cycle. Cryopreserved primary human hepatocytes were infected with 30,000 freshly extracted P. falciparum sporozoites and simultaneously treated with a dose range (0.9–30 µM) of (3i). Atovaquone (ATQ) was used as a positive parasite-killing control at 25 nM.
P. falciparum (NF135 strain) sporozoites were isolated by dissection of the salivary glands of infected A. stephensi 14–21 days after an infective blood meal (Department of medical microbiology, University Medical Centre, St Radboud, Nijmegen Netherland). All infected salivary glands were removed by hand dissection, crushed in a potter for sporozoites isolation, and filtrated through a 40 μm filter to remove mosquito debris (Cell Strainer, BD BioSciences, Franklin Lakes, NJ, USA). The sporozoites were counted using a disposable Glasstic microscope slide (KOVA, Garden Grove, CA, USA).
One day before hepatocyte thawing, 96-well plates were coated by a Corning®® collagen solution (50 µg/mL rat tail type I collagen in 0.02N acid acetic) over night at room temperature. The next day, the wells were washed twice by PBS solution. Cryopreserved primary human hepatocytes (LONZA, Basel, Swiss) were seeded in 96-well plates with a pre-determined seeding dose that gave a single dense layer of attached hepatocytes. Four days post-seeding, each plate well was infected with 30,000 freshly extracted Plasmodium falciparum sporozoites. […]
Hepatocyte cultures were fixed with 4% paraformaldehyde solution (PFA, Invitrogen) for 10 min. […] Images were analyzed and prepared with ImageJ software. Apicoplast morphology was observed and quantified by eye under a confocal microscope.
Upon immunostaining of parasites, the study plates were scanned using a CellInsight high-content screening platform equipped with the Studio HCS software (Thermo Fisher Scientific, Waltham, MA, USA). […] The number of host hepatocyte nuclei per well was counted by the system as a measure of toxicity of 3i towards the liver cells. […]

For series [2], the system named is Pf3D7 (3D7 chloroquine-sensitive strain). Particulars: Figure 2; cited from earlier work.
For the next series, the system named is HepG2. The settings on record: Figure 2; cited from earlier work.
The test system of series [3] is K1 chloroquine and pyrimethamine-resistant P. falciparum strain. Put plainly: In vitro antiplasmodial evaluation (SYBR Green I). Particulars: for EC50: K1 strain, 72 h incubation, three independent experiments, read-out: EC50 PfK1 (µM) ± SD. It counts as cell-based, Plasmodium falciparum. As to the method:
(§1) For all molecules, the selectivity index was calculated as following SI = CC50/EC50.
It was maintained in continuous culture, as described previously by Trager and Jensen. Cultures were maintained in fresh A+ human erythrocytes at 2.5% hematocrit in complete medium (RPMI 1640 with 25 mM HEPES, 25 mM NaHCO3, 10% of A+ human serum) at 37 °C under reduced O2 atmosphere (gas mixture 10% O2, 5% CO2, and 85% N2). Parasitemia was maintained daily between 1 and 3%. The P. falciparum drug susceptibility test was carried out by comparing quantities of DNA in treated and control cultures of parasite in human erythrocytes according to an SYBR Green I fluorescence-based method using a 96-well fluorescence plate reader. Compounds, previously dissolved in DMSO (final concentration less than 0.5% v/v), were incubated in a total assay volume of 200 μL (RPMI, 2% hematocrit and 0.4% parasitemia) for 72 h in a humidified atmosphere (10% O2 and 5% CO2) at 37 °C, in 96-well flat bottom plates. Duplicate assays were performed for each sample. After incubation, plates were frozen at […] for 24 h. Then, the frozen plates were thawed for 1 h at 37 °C. Fifteen µL of each sample were transferred to 96-well flat bottom non-sterile black plates (Greiner Bio-one, Kremsmünster, Austria), already containing 15 µL of the SYBR Green I lysis buffer (2X SYBR Green I, 20 mM Tris base pH 7.5, 20 mM EDTA, 0.008% w/v saponin, 0.08% w/v Triton X-100). […] Plates were incubated for 15 min at 37 °C and then read on a TECAN Infinite F-200 spectrophotometer with excitation and emission wavelengths at 485 and 535 nm, respectively.

The subject of a further series is P. falciparum apicoplast. As to the kind of experiment: Immunofluorescence assay of apicoplast biogenesis on treated blood-stage parasites. The series is classed as cell-based, Plasmodium falciparum. The settings on record: 48 h, 0.2 µM. Here is the method: (§2) To determine the impact of (3i) on apicoplast biogenesis, parasites were treated for 48 h with 0.2 µM of (3i) or 0.2 µM of (2i) (a control of (3i) for which the active CCl3 was replaced by a methyl CH3 group) and compared to untreated parasites by immunofluorescence assay. […] In order to determine if the apicoplast is the main target of (3i), we performed a growth assay over three life cycles to assess a potential delayed death effect, one of the major signature for compounds affecting apicoplast. […] The second interpretation could be that, unlike chloramphenicol or doxycycline, which cause a delayed death phenotype on Plasmodium, (3i) could act like fosmidomycin or actinonin and cause a rapid death phenotype.
Plasmodium falciparum blood stage parasites were maintained at 2% hematocrit in 1640 RPMI-HEPES, supplemented with 5% AlbuMAX II (GIBCO) and 0.25% gentamycin. Parasites were grown sealed Perspex chambers gassed with beta mix gas (1% O2, 5% CO2 and 94% N2) at 37 °C and maintained on 48-h cycles. Cultures were tightly synchronized at ring stage using sorbitol treatment (5% v/v) as previously described.
Prior to the treatment, parasites were synchronized using 5% sorbitol. After 48 h treatment ([…] or DMSO) parasites were fixed using 4% paraformaldehyde (PFA) and 0.0075% glutaraldehyde for 30 min at room temperature. […]

Series [4] concerns Plasmodium falciparum blood stage parasites. Put plainly: Growth assay over three life cycles (delayed death). The series is classed as cell-based. Particulars: 0.2 µM; 48, 96, 144 h. Here is the method: as §2
To observe a potential effect of delayed death of the molecule on the parasite, Plasmodium was maintained on three life cycles (48 h). […] Fluorescence from each well was measured with TECAN infinite M200 plate reader (excitation: 485 nm, emission: 538 nm and integration time: 1000 μs). […] A graph was obtained by performing the ration of the treated culture fluorescence intensity on the untreated culture fluorescence intensity (n = 3).

For series [5], the system named is HepG2 human hepatocyte cell line. As to the kind of experiment: In vitro cytotoxicity evaluation HepG2 (MTT). It counts as cell-based. Here is the method: as §1
(§3) Triplicate assays were performed for each sample. Each plate-well was then microscopically examined for possible precipitate formation before the medium was aspirated from the wells. Next, 100 µL of MTT (3-(4,5-dimethyl-2-thiazolyl)-2,5-diphenyl -2H-tetrazolium bromide) solution (0.5 mg/mL in medium without FBS) was added to each well. […] After this time, the MTT solution was removed and DMSO (100 μL) was added to dissolve the resulting blue formazan crystals. Plates were shaken vigorously (700 rpm) for 10 min. The absorbance was measured at 570 nm with 630 nm as reference wavelength using a BIO-TEK ELx808 Absorbance Microplate Reader (LabX, Midland, ON, Canada). DMSO was used as blank and doxorubicin (purchased from Sigma Aldrich) as positive control. Cell viability was calculated as a percentage of control (cells incubated without compound). […] CC50 values to represent the mean value calculated from three independent experiments.

A short description of series [6]: Aqueous solubility in the cell culture medium. It counts as physicochemical. As to the method:
It appeared that the cluttered derivatives (3q, 3s) and the 2-chlorophenoxy derivative (3b) were the less cytotoxic compounds.
The HepG2 cell line was maintained at 37 °C, 5% CO2, at 90% humidity in MEM supplemented with 10% fetal bovine serum, 1% L-glutamine (200 mM), and penicillin (100 U/mL)/streptomycin (100 μg/mL) (complete RPMI medium). The cytotoxicity of the tested molecules on the HepG2 (hepatocarcinoma cell line purchased from ATCC, ref HB-8065) cell line was assessed according to the method of Mosmann with slight modifications. Briefly, 5.10^3 cells in 100 μL of complete medium were inoculated into each well of 96-well plates and incubated at 37 °C in humidified 5% CO2. After 24 h incubation, 100 μL of medium with various product concentrations dissolved in DMSO (final concentration less than 0.5% v/v) were added and the plates were incubated for 72 h at 37 °C. Triplicate assays were performed for each sample. Each plate-well was then microscopically examined for possible precipitate formation before the medium was aspirated from the wells. Next, 100 µL of MTT (3-(4,5-dimethyl-2-thiazolyl)-2,5-diphenyl -2H-tetrazolium bromide) solution (0.5 mg/mL in medium without FBS) was added to each well. Cells were incubated for 2 h at 37 °C. After this time, the MTT solution was removed and DMSO (100 μL) was added to dissolve the resulting blue formazan crystals. Plates were shaken vigorously (700 rpm) for 10 min. The absorbance was measured at 570 nm with 630 nm as reference wavelength using a BIO-TEK ELx808 Absorbance Microplate Reader (LabX, Midland, ON, Canada). DMSO was used as blank and doxorubicin (purchased from Sigma Aldrich) as positive control. Cell viability was calculated as a percentage of control (cells incubated without compound). […] CC50 values to represent the mean value calculated from three independent experiments.

Series [7] in a line: In vitro cytotoxicity evaluation HepG2 (MTT). The series is classed as cell-based, human. The settings on record: human, CC50 HepG2 (µM) ± SD. Here is the method:
as §1, §3

Setting [8] is: Plasmodium falciparum, K1, 72 h.

`O=C1C(O)=C([C@H]2CC[C@H](c3ccc(Cl)cc3)CC2)C(=O)c2ccccc21` [ATQ, Atovaquone, reference compound]: the “Effect on exoerythrocytic forms (EEF or schizont) size and numbers” value in [1] is “completely clear all parasites from the culture”.
As for `Brc1ccc(Nc2nc3ccccc3nc2Nc2ccc(Br)cc2)cc1` [MMV007224], the EC50 in series [2] was 1.06 µM. Moreover, in the series on HepG2, the CC50 is 5.1 µM.
As to `Cc1nc2ccccc2nc1Oc1ccc([N+](=O)[O-])cc1` [2i, 2-Methyl-3-(4-nitrophenoxy)quinoxaline], the figures for the concentration giving a half-maximal response (EC50) in series [3] and in series [3] (setting [8]) were over 16 µM and over 25 µM, respectively. Moreover, the “Effect on apicoplast biogenesis (immunofluorescence)” value in the series on P. falciparum apicoplast was “absence of effect”. Also, in series [4], the “Parasite growth over three life cycles (ratio treated/untreated)” value is given as “absence of effect”.
For the compound “2-(Naphthalen-1-yloxy)-3-trichloromethylquinoxaline [3r]”, the EC50 in [3] was 0.4 ± 0.08 µM. Moreover, the CC50 in series [5] was over 31.2 µM. Also, in [6], the “Aqueous solubility in the cell culture medium” value is “poor aqueous solubility”.
With `FS(F)(F)(F)(F)c1ccc(Oc2nc3ccccc3nc2C(Cl)(Cl)Cl)cc1` [3l, 2-Trichloromethyl-3-[4-(pentafluorosulfanyl)phenoxy]quinoxaline], the melting point is 99 °C. The EC50 in [3] (setting [8]) stood at 0.2 ± 0.03 µM. Besides, in [3] (SI = CC50 HepG2/EC50 PfK1), the “SI (selectivity index)” value is 83.0. Moreover, in series [7], the CC50 at 72 h was determined as 15.4 µM. For the same compound, the CC50 in [5] (human, 72 h) amounted to 16.6 ± 3.9 µM.
Regarding “2-(Naphthalen-2-yloxy)-3-trichloromethylquinoxaline [3q]”, the EC50 in [3] was 0.6 ± 0.1 µM. This compound also returned a CC50 in series [5] of 53.1 ± 7.6 µM.
In turn, `N#Cc1ccc(Oc2nc3ccccc3nc2C(Cl)(Cl)Cl)cc1` [3n, 4-[(3-Trichloromethylquinoxalin-2-yl)oxy]benzonitrile] returned a melting point of 194 °C. Moreover, the EC50 in series [3] (setting [8]) is 0.2 µM. The compound also displayed a CC50 at 72 h in series [7] of 16.6 µM. In [5] (human, 72 h), this compound came in with a CC50 of 15.4 ± 2.1 µM.
